Source: patent publication US20250270209A1 (INTERLINE THERAPEUTICS, INC., priority 2022, published 2025)

What was measured:
[1] = biological target: T1, wild type LRRK2 overexpressed in recombinant HEK-293T cells (Homo sapiens, UniProt Q5S007); assay: pS935 LRRK2 Cell Assay (HTRF, phospho-LRRK2 Ser935); assay type: cell-based; settings: LRRK2 Inhibition, Table 8, 2 hours compound incubation
T1 construct: host or cells: HEK293T (transient transfection with pCMV-LRRK2 WT plasmid)
Method in brief: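 HEK-293T cells transiently transfected with wild-type LRRK2 for 24 h, plated overnight, then treated 2 h at 37° C with compound (top 10 μM, 3-fold, 9 doses, duplicates, 0.2% DMSO). Lysates probed overnight at 23° C by sandwich HTRF for pSer935; 665/615 nm ratio read.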

LRRK2 wild type enzyme = LRRK2 wild type enzyme (Homo sapiens, UniProt Q5S007); assay: Biochemical Assay: LRRK2 TR-FRET (LanthaScreen) kinase assay with LRRKtide substrate; settings: LRRK2 Inhibition, Table 8
LRRK2 wild type enzyme, sequence (Q5S007 whole entry): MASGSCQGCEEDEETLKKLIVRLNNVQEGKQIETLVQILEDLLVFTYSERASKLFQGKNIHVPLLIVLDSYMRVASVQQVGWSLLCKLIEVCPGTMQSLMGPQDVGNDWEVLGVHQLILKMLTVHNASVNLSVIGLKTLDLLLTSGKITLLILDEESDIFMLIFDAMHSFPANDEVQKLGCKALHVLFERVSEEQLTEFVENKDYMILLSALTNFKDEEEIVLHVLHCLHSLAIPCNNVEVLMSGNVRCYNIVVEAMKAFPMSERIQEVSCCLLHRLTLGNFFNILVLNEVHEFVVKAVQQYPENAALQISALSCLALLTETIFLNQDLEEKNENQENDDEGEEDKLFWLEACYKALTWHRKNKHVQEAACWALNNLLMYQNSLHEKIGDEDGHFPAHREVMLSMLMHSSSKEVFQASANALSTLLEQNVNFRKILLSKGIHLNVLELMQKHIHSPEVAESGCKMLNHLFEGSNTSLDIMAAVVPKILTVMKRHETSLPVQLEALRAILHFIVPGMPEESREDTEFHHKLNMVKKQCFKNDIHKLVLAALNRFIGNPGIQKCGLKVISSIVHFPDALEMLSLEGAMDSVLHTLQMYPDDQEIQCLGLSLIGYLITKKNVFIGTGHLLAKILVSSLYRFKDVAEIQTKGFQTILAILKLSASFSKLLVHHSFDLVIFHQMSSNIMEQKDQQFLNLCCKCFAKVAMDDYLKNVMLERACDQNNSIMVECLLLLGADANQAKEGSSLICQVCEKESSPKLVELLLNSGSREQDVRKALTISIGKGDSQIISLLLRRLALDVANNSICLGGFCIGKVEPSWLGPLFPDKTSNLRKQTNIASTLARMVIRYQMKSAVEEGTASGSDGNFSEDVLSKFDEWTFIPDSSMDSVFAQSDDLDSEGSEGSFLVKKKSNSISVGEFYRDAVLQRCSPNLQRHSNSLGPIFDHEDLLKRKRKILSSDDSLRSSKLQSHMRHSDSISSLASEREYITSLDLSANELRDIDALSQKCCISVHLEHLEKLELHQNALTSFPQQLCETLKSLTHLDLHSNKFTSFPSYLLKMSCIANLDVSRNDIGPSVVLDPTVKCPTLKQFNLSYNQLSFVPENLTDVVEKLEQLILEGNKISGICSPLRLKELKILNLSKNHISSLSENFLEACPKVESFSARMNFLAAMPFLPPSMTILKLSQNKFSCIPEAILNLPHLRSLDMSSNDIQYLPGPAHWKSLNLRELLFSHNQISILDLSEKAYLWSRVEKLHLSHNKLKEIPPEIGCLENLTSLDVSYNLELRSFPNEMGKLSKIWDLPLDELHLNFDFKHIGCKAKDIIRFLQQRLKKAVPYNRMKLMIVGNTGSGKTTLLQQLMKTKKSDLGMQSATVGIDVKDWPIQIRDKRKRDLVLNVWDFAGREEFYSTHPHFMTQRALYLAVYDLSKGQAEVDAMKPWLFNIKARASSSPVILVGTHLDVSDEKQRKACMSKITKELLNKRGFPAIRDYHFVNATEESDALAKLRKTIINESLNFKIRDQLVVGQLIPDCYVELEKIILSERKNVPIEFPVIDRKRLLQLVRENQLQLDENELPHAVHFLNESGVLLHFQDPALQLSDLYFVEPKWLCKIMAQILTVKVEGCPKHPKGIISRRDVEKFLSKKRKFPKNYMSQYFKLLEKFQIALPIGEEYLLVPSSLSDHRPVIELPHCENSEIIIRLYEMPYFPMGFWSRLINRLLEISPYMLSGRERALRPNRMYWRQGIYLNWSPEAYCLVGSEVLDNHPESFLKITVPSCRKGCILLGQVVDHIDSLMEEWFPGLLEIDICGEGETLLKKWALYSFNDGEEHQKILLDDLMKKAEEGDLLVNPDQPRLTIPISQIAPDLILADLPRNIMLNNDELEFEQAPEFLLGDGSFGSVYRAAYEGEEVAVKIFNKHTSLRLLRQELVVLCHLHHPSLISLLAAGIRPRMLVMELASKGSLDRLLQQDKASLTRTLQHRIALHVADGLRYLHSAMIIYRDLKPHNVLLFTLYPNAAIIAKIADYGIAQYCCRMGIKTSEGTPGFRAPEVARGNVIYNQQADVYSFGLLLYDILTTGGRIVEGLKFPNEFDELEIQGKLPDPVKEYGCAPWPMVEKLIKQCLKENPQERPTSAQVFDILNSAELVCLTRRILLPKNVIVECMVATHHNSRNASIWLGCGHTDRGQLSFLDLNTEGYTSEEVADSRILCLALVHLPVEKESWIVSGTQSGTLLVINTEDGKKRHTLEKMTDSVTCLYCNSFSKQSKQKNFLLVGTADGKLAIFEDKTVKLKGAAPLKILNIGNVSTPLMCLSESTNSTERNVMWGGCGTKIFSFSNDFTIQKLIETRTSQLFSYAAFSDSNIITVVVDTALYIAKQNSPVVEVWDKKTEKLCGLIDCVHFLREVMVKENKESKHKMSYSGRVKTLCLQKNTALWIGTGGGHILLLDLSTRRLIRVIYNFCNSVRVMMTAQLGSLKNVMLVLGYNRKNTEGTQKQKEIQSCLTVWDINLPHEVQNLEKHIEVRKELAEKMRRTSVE
Method in brief: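 Human wild-type LRRK2 (3 nM) preincubated 15 min with compound (11-point, 3-fold, top 10 μM), then reacted 120 min at 23 °C with 400 nM LRRKtide and 25 μM ATP, pH 8.0. Stopped with EDTA; Tb-anti-pLRRKtide TR-FRET read after 30 min.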

T1 sequence (Q5S007 whole entry): as above

| Compound | IC50 [1] | IC50 (LRRK2 wild type enzyme) |
| --- | --- | --- |
| C[C@@H]1C[C@H](n2c(C3CCN(C(=O)c4cccnn4)CC3)nc3cnc4ccc(C#N)cc4c32)CCO1 [Compound 117, 1-[(2R,4R)-2-methyloxan-4-yl]-2-[1-(pyridazine-3-carbonyl)piperidin-4-yl]-1H-imidazo[4,5-c]quinoline-8-carbonitrile] | 503 nM | 1.24 nM |
| C[C@@H]1C[C@H](n2c(CC(=O)N[C@H]3C[C@H]3F)nc3cnc4ccc(C#N)cc4c32)CCO1 [Compound 289, N-[(1S,2R)-2-fluorocyclopropyl]{3-[(2R,4R)-2-methyltetrahydro-2H-pyran-4-yl]-12-cyano-3,5,8-triazatricyclo[7.4.0.0^2,6]trideca-1,4,6,8,10,12-hexaen-4-yl}acetamide] | 54.5 nM | 0.692 nM |
| C[C@@H]1C[C@H](n2c(C3CC(=O)N(c4cnn(CCO)c4)C3)nc3cnc4ccc(C#N)cc4c32)CCO1 (stereo partly drawn) [Compound 123, 2-{1-[1-(2-hydroxyethyl)-1H-pyrazol-4-yl]-5-oxopyrrolidin-3-yl}-1-[(2R,4R)-2-methyloxan-4-yl]-1H-imidazo[4,5-c]quinoline-8-carbonitrile] | 4050 nM | 1.41 nM |
| C[C@@H]1C[C@H](n2c(CC3CN(C(=O)c4ccccn4)C3)nc3cnc4ccc(C#N)cc4c32)CCO1 [Compound 56, 1-[(2R,4R)-2-methyloxan-4-yl]-2-{[1-(pyridine-2-carbonyl)azetidin-3-yl]methyl}-1H-imidazo[4,5-c]quinoline-8-carbonitrile] | 158 nM | 2.39 nM |
| C[C@@H]1C[C@H](n2c([C@@H]3CCN(C(=O)C4CC4)C3)nc3cnc4ccc(C#N)cc4c32)CCO1 [Compound 40, 2-[(3R)-1-cyclopropanecarbonylpyrrolidin-3-yl]-1-[(2R,4R)-2-methyloxan-4-yl]-1H-imidazo[4,5-c]quinoline-8-carbonitrile] | 685 nM | 9.19 nM |
| C[C@@H]1C[C@H](n2c([C@H]3CN(c4cnn(C)c4)C(=O)O3)nc3cnc4ccc(C#N)cc4c32)CCO1 [Compound 124, 2-[(5R)-3-(1-methyl-1H-pyrazol-4-yl)-2-oxo-1,3-oxazolidin-5-yl]-1-[(2R,4R)-2-methyloxan-4-yl]-1H-imidazo[4,5-c]quinoline-8-carbonitrile] | 50.9 nM | 0.706 nM |
| C[C@@H]1C[C@H](n2c(CC(=O)Nc3nccs3)nc3cnc4ccc(C#N)cc4c32)CCO1 [Compound 335, N-(1,3-thiazol-2-yl){3-[(2R,4R)-2-methyltetrahydro-2H-pyran-4-yl]-12-cyano-3,5,8-triazatricyclo[7.4.0.0^2,6]trideca-1(9),2(6),4,7,10,12-hexaen-4-yl}acetamide] | 4.06 nM | 0.433 nM |
| C[C@@H]1C[C@H](n2c(CC(=O)Nc3cnccc3O)nc3cnc4ccc(C#N)cc4c32)CCO1 [Compound 208, N-(4-hydroxy-3-pyridyl){3-[(2R,4R)-2-methyltetrahydro-2H-pyran-4-yl]-12-cyano-3,5,8-triazatricyclo[7.4.0.0^2,6]trideca-1,4,6,8,10,12-hexaen-4-yl}acetamide] | 4930 nM | 0.582 nM |
| C[C@@H]1C[C@H](n2c(C3CC(=O)N(Cc4cccnc4)C3)nc3cnc4ccc(C#N)cc4c32)CCO1 (single isomer, unassigned) [Compound 30, 1-[(2R,4R)-2-methyloxan-4-yl]-2-[(3R*)-5-oxo-1-[(pyridin-3-yl)methyl]pyrrolidin-3-yl]-1H-imidazo[4,5-c]quinoline-8-carbonitrile] | 41.3 nM | 0.567 nM |
| C[C@@H]1C[C@H](n2c(CC(=O)NCC3CCCCO3)nc3cnc4ccc(C#N)cc4c32)CCO1 (stereo partly drawn) [Compound 143, 2-{8-cyano-1-[(2R,4R)-2-methyloxan-4-yl]-1H-imidazo[4,5-c]quinolin-2-yl}-N-[(oxan-2-yl)methyl]acetamide] | 11.5 nM | 0.534 nM |
